How the values were obtained:
[1] = test system: telomerase; assay: Telomerase activity in adult keratinocytes in monolayer culture (PCR-ELISA kit); assay type: cell-based, human; conditions: 100 ng/ml; 24 hours
Description: Protocol: Human keratinocytes were obtained from a donor. To perform the experiments, the keratinocytes were used at a low passage level (i.e., cell isolation passage number 2). The cells were grown as a monolayer until they reached about 75% of confluence before being used in the experiment. Reference product: FK228 at 100 ng/ml was used as a reference inducer of telomerase 1 activity. Incubation protocol: […] At the end of the incubation period, the telomerase was extracted from the cells and its activity was determined by means of a specific, sensitive kit. The principle of the telomerase kit is to measure the telomerase activity by coupling a PCR step (in which telomerase functions as regards its elongation activity) with an ELISA step for semi-quantitative determination of amounts of telomerase elongation product. The results are expressed in arbitrary units for the telomerase activity level (mean±S.D). The significance level between the “vehicle” and the “reference product” was evaluated by means of a Student's t test (*: p<0.05). The significance level between “control” and “test compound” was evaluated independently for each product by a one-way analysis of variance (one-way ANOVA) followed by a Holm-Sidak test (*: p<0.05).

[2] = molecular target: T1, phospholipase A2 (Homo sapiens, UniProt P39877); assay: sPLA2 (type V) Inhibitor Screening Assay Kit; assay type: biochemical; conditions: 1 mg in 100 μl
T1 construct: purchased
T1 sequence (P39877 21-138): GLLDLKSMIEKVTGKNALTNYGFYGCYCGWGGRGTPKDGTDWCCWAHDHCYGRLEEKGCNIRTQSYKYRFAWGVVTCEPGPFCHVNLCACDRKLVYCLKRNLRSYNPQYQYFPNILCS
Text: The object of this study is to evaluate the modulation of the […] activity of the enzyme phospholipase A2 by one or more samples in an in vitro acellular model by means of the “SPLA2 (type V) Inhibitor Screening Assay Kit”. Phospholipase A2 is a key enzyme upstream of the inflammatory process which is triggered by the arachidonic cascade. A buffered solution of phospholipase A2 reacts with a specific substrate, diheptanoyl thio-PC, and transforms it into a compound which binds to a chromogen, DTNB, with agitation at room temperature. The phospholipase A2 activity may thus be evaluated by measuring the absorbance at 413 nm. […] The substrate transformed by the enzyme is stained by means of the chromogen DTNB by agitation at room temperature. […] The modulation of this activity is expressed as a percentage of inhibition or of activation of the phospholipase A2 activity in the absence of the active agent, i.e. only in the presence of the enzyme substrate (diheptanoyl thio-PC).
At the end of the incubation period, the activity of the enzyme phospholipase A2 with and without the test product or the reference product is evaluated by measuring the absorbance of the reaction media at 413 nm. For each concentration tested, the modulation of the phospholipase A2 enzymatic activity with the test product is calculated according to the following formula. […]

SMILES | increase of telomerase activity [1] [%] | inhibition of PLA2 activity [2] [%]
C/C=C1\NC(=O)[C@H]2CSSCC/C=C/[C@H](CC(=O)N[C@H](C(C)C)C(=O)N2)OC(=O)[C@H](C(C)C)NC1=O [FK228] | 28.0 | –
CCCCCCCCCCCCCCCCSC[C@H](COP(=O)(O)OCC[N+](C)(C)C)NC(=O)CCCCCCCCCCCCCCC [thioetheramide-PC] | – | 93

Reference: patent US11717476B2, “Moringa peregrina seed extract rich in 2,5-diformylfuran, process for obtaining same and use thereof in cosmetic compositions” (priority 2020, dated 2023)
